Data published in ChEMBL document CHEMBL1201862, “PubChem BioAssay data set” (2004).
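96-well plates; 48 h exposure; 5 concentrations. Endpoints by linear interpolation between flanking doses. Not reached: highest tested concentration assigned. At the GI50, growth is halved.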 Calls of active or inactive are those of the source. No stated cut-off is given here; in the data, active = GI50 up to about 1.1 µM and inactive = higher.

How the values were obtained:
Assay in all cases: growth of human tumour cells (NCI), 48 h
ACHN = system: ACHN
COLO 205 = system: COLO 205
HCC 2998 = system: HCC 2998
HCT-116 = system: HCT-116
HOP-62 = system: HOP-62
HT-29 = system: HT-29
K562 = system: K562
KM12 = system: KM12
NCI-H23 = system: NCI-H23
OVCAR-4 = system: OVCAR-4
SF-268 = system: SF-268
SF-295 = system: SF-295
SK-OV-3 = system: SK-OV-3
SN12C = system: SN12C
SNB-19 = system: SNB-19
SNB-75 = system: SNB-75
SW-620 = system: SW-620
UACC-62 = system: UACC-62
RXF 393 = system: RXF 393

Measured: GI50

CC(C)N(C(=O)C12C3C4C1C1C2C3C41C(=O)N(C(C)C)C(C)C)C(C)C (stereo not drawn)
inactive: ACHN > 50 µM | COLO 205 > 50 µM | HCC 2998 > 50 µM | HCT-116 > 50 µM | HOP-62 > 50 µM | HT-29 > 50 µM | K562 > 50 µM | KM12 > 50 µM | NCI-H23 > 50 µM | OVCAR-4 > 50 µM | SF-268 > 50 µM | SF-295 > 50 µM | SK-OV-3 > 50 µM | SN12C > 50 µM | SNB-19 > 50 µM | SNB-75 > 50 µM | SW-620 > 50 µM | UACC-62 > 50 µM

O=C1/C(=C/c2ccccc2)CN(C(=O)Oc2ccccc2)C/C1=C\c1ccccc1
inactive: ACHN 21.9 µM | COLO 205 > 100 µM | HCT-116 6.81 µM | HOP-62 11.2 µM | HT-29 > 100 µM | K562 7.13 µM | KM12 > 100 µM | NCI-H23 33 µM | OVCAR-4 96.2 µM | RXF 393 11.1 µM | SF-268 24.5 µM | SF-295 11.2 µM | SN12C 65.3 µM | SNB-19 13.2 µM | SNB-75 4.91 µM | SW-620 20.2 µM | UACC-62 46.3 µM

CC1(C)Cc2c(oc3ncnc(N)c23)CS1
inactive: ACHN > 100 µM | COLO 205 > 100 µM | HCC 2998 > 100 µM | HCT-116 > 100 µM | HOP-62 > 100 µM | HT-29 > 100 µM | K562 > 100 µM | KM12 > 100 µM | NCI-H23 > 100 µM | OVCAR-4 > 100 µM | SF-268 > 100 µM | SF-295 > 100 µM | SK-OV-3 > 100 µM | SN12C > 100 µM | SNB-19 > 100 µM | SNB-75 > 100 µM | SW-620 > 100 µM | UACC-62 > 100 µM

Oc1nnc2c(-c3ccccc3)n[nH]c2n1
inactive: ACHN > 100 µM | COLO 205 > 100 µM | HCC 2998 > 100 µM | HCT-116 > 100 µM | HOP-62 > 100 µM | HT-29 > 100 µM | K562 > 100 µM | KM12 > 100 µM | NCI-H23 > 100 µM | OVCAR-4 > 100 µM | RXF 393 > 100 µM | SF-268 > 100 µM | SF-295 > 100 µM | SN12C > 100 µM | SNB-19 > 100 µM | SW-620 > 100 µM | UACC-62 > 100 µM

O=C(O)c1ccc(Nc2nc3nn(Cc4ccccc4)cc3c(=O)s2)cc1
inactive: ACHN > 100 µM | COLO 205 > 100 µM | HCC 2998 > 100 µM | HCT-116 > 100 µM | HOP-62 > 100 µM | K562 > 100 µM | KM12 > 100 µM | NCI-H23 > 100 µM | RXF 393 > 100 µM | SF-268 > 100 µM | SF-295 > 100 µM | SK-OV-3 > 100 µM | SN12C > 100 µM | SNB-19 > 100 µM | SW-620 > 100 µM

O=C(CCC(=O)Nc1cccc(Cl)c1)CC(=O)c1ccc(F)cc1
inactive: ACHN > 100 µM | COLO 205 > 100 µM | HCC 2998 > 100 µM | HCT-116 > 100 µM | HOP-62 > 100 µM | HT-29 > 100 µM | K562 > 100 µM | KM12 > 100 µM | NCI-H23 > 100 µM | OVCAR-4 > 100 µM | SF-268 > 100 µM | SF-295 23.2 µM | SK-OV-3 > 100 µM | SN12C > 100 µM | SNB-19 > 100 µM | SNB-75 > 100 µM | SW-620 > 100 µM | UACC-62 > 100 µM

CC(=O)O[C@]12CCCCCC1C1(O)C(O)CCCCC12 (stereo partly drawn)
inactive: ACHN > 100 µM | COLO 205 > 100 µM | HOP-62 > 100 µM | HT-29 > 100 µM | K562 > 100 µM | KM12 > 100 µM | NCI-H23 > 100 µM | OVCAR-4 > 100 µM | RXF 393 > 100 µM | SF-268 > 100 µM | SF-295 > 100 µM | SK-OV-3 > 100 µM | SN12C > 100 µM | SNB-19 > 100 µM | SNB-75 > 100 µM | SW-620 > 100 µM | UACC-62 > 100 µM

CCOC(=O)[C@]12C3C=CC(C3)C1C(=O)C1OC12 (stereo partly drawn)
inactive: ACHN > 100 µM | COLO 205 > 100 µM | HCC 2998 > 100 µM | HCT-116 > 100 µM | HOP-62 > 100 µM | HT-29 > 100 µM | K562 > 100 µM | KM12 > 100 µM | NCI-H23 > 100 µM | OVCAR-4 > 100 µM | SF-268 > 100 µM | SF-295 > 100 µM | SK-OV-3 > 100 µM | SN12C > 100 µM | SNB-19 > 100 µM | SNB-75 81.5 µM | SW-620 > 100 µM | UACC-62 > 100 µM
